Laboratory results published in patent US7595326B2, “Synthesis of novel tubulin polymerization inhibitors: benzoylphenylurea (BPU) sulfur analogs” (Champions Biotechnology, Inc., priority 2005, dated 2009).

Tests used:
[1] = test system: ASPC1; assay: MTT growth inhibition, pancreatic cancer cell line ASPC1; type: cell-based; conditions: Homo sapiens, 96-hours treatment, average of three independent experiments
Experimental: (§1) Eight of these analogs 6d, 6h, 6n, 6g, 7b, 7d, 8g, and 8h were tested for their cytotoxicity in seven pancreatic cell lines ASPC1, Panc1, Panc203, Panc430, Pane 1005, MiaPaca2, and HS766T using MTT assay. Cells were trypsinized, seeded at 5×10^3 cells/well in 96-well plate and allowed to grow for 24 hours before the treatment with exponential increasing concentrations of drugs in the presence of 10% FBS. After a 96-hours period of treatment, 20 μl of MTT solution (5 mg/ml in PBS) were added to each well, and the plates were then incubated for 3 hours at 37° C. Medium was then replaced with 100 μl of DMSO per well. Plates were shaken and the optical density was measured at 570 nm using a multiwell plate reader (Bio-Rad, Model 550, Bio-Rad Inc., Hercules, Calif.). Each experiment was performed in triplicate for each drug concentration and was carried out independently at least 3 times. The IC50 value was defined as the concentration needed for a 50% reduction in the absorbance calculated based on the survival curves. Response to drug treatment was assessed by standardizing treatment groups to untreated controls. Compounds activity was compared with compound 1.
(§2) Biology. Table 2 (Growth Inhibition of Pancreatic Cancer Cell Lines by BPU and BPTU Analogues (IC50)^a)compares the cytotoxicity of a series of new derivatives against a panel of seven pancreatic cancer cell lines, as determined by MTT assay. See, Mosmann, T., J. Immunol. Methods 65:55-63 (1983).

[2] = test system: Panc430; assay: MTT growth inhibition, pancreatic cancer cell line Panc430; type: cell-based; conditions: for IC50: Pancreatic cancer cell, MTT, 96-hours treatment, average of three independent experiments
Experimental: as §1, §2

[3] = test system: HS766; assay: MTT growth inhibition, pancreatic cancer cell line HS766; type: cell-based; conditions: Homo sapiens, Hs 766, 96-hours treatment, average of three independent experiments
Experimental: as §1, §2

[4] = test system: CWR22R; assay: MTT growth inhibition, prostate cancer cell line CWR22R; type: cell-based, human; conditions: for IC50: Homo sapiens, 22Rv1, MTT, average of three independent experiments
Experimental: (§3) This MTT assay was carried using human prostate cancer cell lines CWR22R, LAPC-4 and LnCap using Promega cell titer 96 nonradioactive cell proliferation kit. Cells were trypsinized and centrifuged at 1000 rpm for 5 minutes and the supernatant was aspirated. Cells were resuspended with HBSS to a concentration of […]. Cell suspension was diluted in serum containing medium to plate 2000 cells/well/0.2 ml. Cell suspension was transferred to sterile solution basin. Cells were plated using multichannel pipette set at 200 μl and incubated overnight for attachment. One plate was prepared for day 0 MTT assay as follows: 100 μl of media was removed from each well using multichannel pipette and 15 μl of MTT reagent was added. Plates were incubated at 37° C. for 4 hrs. 100 μl of STOP solution was added to each well and incubated at room temperature for 1 hour. Absorbance was measured at 570 and 650 nm on plate reader. All the media from the remaining plates were carefully removed and the cells were treated with the media containing drug. MTT assays were done on days 0, 3, 5 and 7. In the preliminary screening four BPU sulfur analogs 6l, 6h, 6n, 7d and 8h were screened and their activity was compared with compound 1.
(§4) Compounds with significant inhibitory activity in pancreatic cancer cells were further evaluated against prostate cancer cell lines in the MTT assay, (Mosmann, T., J. Immunol. Methods 65:55-63 (1983)) and the results were compared to those for compound 1 (Table 3).

[5] = test system: Panc1; assay: MTT growth inhibition, pancreatic cancer cell line Panc1; type: cell-based; conditions: for IC50: Homo sapiens, PANC-1, MTT, 96-hours treatment, average of three independent experiments
Experimental: as §1, §2

[6] = test system: Panc203; assay: MTT growth inhibition, pancreatic cancer cell line Panc203; type: cell-based; conditions: for IC50: Homo sapiens, Panc203, MTT, 96-hours treatment, average of three independent experiments
Experimental: as §1, §2

[7] = test system: Miapaca2; assay: MTT growth inhibition, pancreatic cancer cell line Miapaca2; type: cell-based; conditions: for IC50: Homo sapiens, MIA PaCa-2, MTT, 96-hours treatment, average of three independent experiments
Experimental: as §1, §2

[8] = test system: Panc1005; assay: MTT growth inhibition, pancreatic cancer cell line Panc1005; type: cell-based; conditions: Homo sapiens, 96-hours treatment, average of three independent experiments
Experimental: as §1, §2

[9] = test system: LnCaP; assay: MTT growth inhibition, prostate cancer cell line LnCaP; type: cell-based, human; conditions: for IC50: Homo sapiens, LNCaP, MTT, average of three independent experiments
Experimental: as §3, §4

[10] = test system: LAPC-4; assay: MTT growth inhibition, prostate cancer cell line LAPC-4; type: cell-based, human; conditions: for IC50: Homo sapiens, LAPC4, MTT, average of three independent experiments
Experimental: as §3, §4

[11] = test system: prostate cancer cell lines CWR22R, LAPC-4 and LnCap; assay: MTT growth inhibition, prostate cancer cell lines (panel); type: cell-based, human; conditions: preliminary screening
Experimental: as §3, with “In the preliminary screening four BPU sulfur analogs 6l, 6h, 6n, 7d and 8h were screened and their activity was compared with compound 1.” left out
as §4

[12] = test system: seven pancreatic cell lines; assay: MTT growth inhibition, panel of seven pancreatic cancer cell lines; type: cell-based; conditions: for times more potent than compound 1, pancreatic cell lines: MTT, seven pancreatic cell lines
Experimental: as §1, §2

[13] = test system: tubulin (colchicine binding site); assay: Inhibition of [3H]colchicine binding
[14] = test system: MCF-7 cells; assay: Apoptosis of MCF-7 cells; type: cell-based; conditions: 48 hours

## O=C(NC(=S)Nc1ccc(Sc2ncc(Br)cn2)cc1)c1ccccc1 [Compound 6h]
[1]
  IC50: 10 µM
[2]
  IC50: 7.5 µM
[3]
  IC50: 8.5 µM
[4]
  IC50: > 10 µM
[5]
  IC50: 9.5 µM
[6]
  IC50: > 10 µM
[7]
  IC50: 10 µM
[8]
  IC50: > 10 µM
[9]
  IC50: > 10 µM
[10]
  IC50: 6 µM

## Nc1ccccc1C(=O)NC(=O)Nc1ccc(Sc2ncc(Br)cn2)cc1 [Compound 7d, 1-(2-Aminobenzoyl)-3-[4-(5-bromopyrimidin-2-ylsulfanyl)phenyl]urea]
[11]
  times more potent than compound 1, prostate cancer cell lines: 20 times
[2]; sulfide versus ether link
  increase in activity of 7d compared to 7c, Panc430: > 50 fold
[5]; sulfide versus ether link
  increase in activity of 7d compared to 7c, Panc1: 39 fold
[6]; sulfide versus ether link
  increase in activity of 7d compared to 7c, Panc203: > 117 fold
[7]; sulfide versus ether link
  increase in activity of 7d compared to 7c, Miapaca2: 9 fold
[12]
  times more potent than compound 1, pancreatic cell lines: 20 time
[10]; sulfide versus ether link
  increase in activity of 7d compared to 7c, LAPC-4: 7 fold

## O=C(NC(=O)c1ccccc1[N+](=O)[O-])Nc1ccc(Oc2nccc(Br)n2)cc1 [Compound 6m]
[13]
  binding to the colchicine binding site (in words): poor binding affinity

## Nc1ccccc1C(=O)NC(=O)Nc1ccc(Sc2ncccn2)cc1 [Compound 7b]
[1]
  IC50: 6 µM
[2]
  IC50: 6.5 µM
[3]
  IC50: 8 µM
[5]
  IC50: 7.5 µM
[6]
  IC50: 5.5 µM
[7]
  IC50: 7 µM
[8]
  IC50: > 10 µM

## O=C(NC(=O)c1ccccc1[N+](=O)[O-])Nc1ccc(Sc2ncccn2)cc1 [Compound 6l]
[4]
  IC50: 5 µM
[9]
  IC50: 0.5 µM
[10]
  IC50: 0.6 µM

## N=C(NC(=O)c1ccccc1)Oc1ccc(Sc2ncc(Br)cn2)cc1 [Compound 6g]
[1]
  IC50: > 10 µM
[2]
  IC50: 2 µM
[3]
  IC50: 5.5 µM
[5]
  IC50: > 10 µM
[6]
  IC50: 7.5 µM
[7]
  IC50: 5 µM
[8]
  IC50: > 10 µM

## Cc1cc(NC(=O)NC(=O)c2ccccc2N(C)C)ccc1Oc1ncc(Br)cn1 [Compound 1]
[14]; 10 nM
  rate of apoptosis, MCF-7 cells: 16.1%
[14]; 30 nM
  rate of apoptosis, MCF-7 cells: 19.5%
[14]; 100 nM
  rate of apoptosis, MCF-7 cells: 27.7%

## O=C(NC(=O)c1ccccc1[N+](=O)[O-])Nc1ccc([S+]([O-])c2ncc(Br)cn2)cc1 (stereo not shown) [Compound 8g, 1-[4-(5-Bromopyrimidine-2-sulfinyl)phenyl]-3-(2-nitrobenzoyl)-urea]
[1]
  IC50: 2.5 µM
[2]
  IC50: 5.5 µM
[3]
  IC50: 6.5 µM
[5]
  IC50: 6.5 µM
[6]
  IC50: 5.5 µM
[7]
  IC50: 8 µM
[8]
  IC50: 5.5 µM
[12]; Pancreatic cancer cell, all the cell lines of the panel
  IC50: 2.5 to 8 µM

## O=C(NC(=O)c1ccccc1[N+](=O)[O-])Nc1ccc(Sc2ncc(Br)cn2)cc1 [Compound 6n, 1-[4-(5-Bromopyrimidin-2-ylsulfanyl)phenyl]-3-(2-nitrobenzoyl)-urea]
[14]
  killing of MCF-7 cells compared with 1 (in words): more potent than 1
[11]
  times more potent than compound 1, prostate cancer cell lines: 20 times
[4]; sulfide versus ether link
  increase in potency of 6n over 6m, CWR22R: 100 fold
[5]; sulfide versus ether link
  increase in potency of 6n over 6m, Panc1: 8 fold
[6]; sulfide versus ether link
  increase in potency of 6n over 6m, Panc203: 14 fold
[13]
  binding to the colchicine binding site (in words): poor binding affinity
[7]; sulfide versus ether link
  increase in potency of 6n over 6m, Mia-paca2: 8 fold
[12]
  times more potent than compound 1, pancreatic cell lines: 20 time
[9]; sulfide versus ether link
  increase in potency of 6n over 6m, LnCap: 20 fold
